Results on two compounds are retold here after patent publication EP0967201A1, “Pharmaceutical agents containing sulfonamids as matrix metalloproteinase inhibitors” (Roche Diagnostics GmbH, priority 1998, dated 1999).

One assay deals with T1, MMP-8 (Homo sapiens, UniProt P22894).
T1 construct: catalytic domain (Met80-Gly242) of human neutrophil collagenase; made in house
Briefly: MMP inhibition enzyme assay (initial reaction rate, standard substrate DNP-Pro-Leu-Gly-Leu-Trp-Ala-D-Arg-NH2). The format is biochemical. The note with it: 8 nM catalytic domain (Met80-Gly242) of human neutrophil collagenase; 10 microM substrate; pH 7.6; read-out: MMP-8 Inhib. [%] IC50. As to the method: (§1) In order to determine the inhibition of MMPs, for example MMP-8, the catalytic domain (isolation and purification see for example Schnierer, S., Kleine, T., Gote, T., Hillemann, A., Knäuper, V., Tschesche, H.,Biochem. Biophys. Res. Commun. (1993) 191, 319-326) is incubated with inhibitors having various concentrations. Subsequently, the initial reaction rate in the conversion of a standard substrate is measured in a manner analogous to Grams F. et al., FEBS 335 (1993) 76-80). Alternatively the percent inhibition will be determined at a distant inhibitor concentration.
(§2) The assays for other MMPs are performed in a analogous manner. • Assay buffer: 50 mM Tris/HCI pH 7.6 (Tris= Tris-(hydroxymethyl)-aminomethan) 100 mM NaCl/10 mM CaCl2-/5% MeOH (if necessary) • Enzyme: 8 nM catalytic domain (Met80-Gly242) of human neutrophil collagenase • Substrate: 10 microM DNP-Pro-Leu-Gly-Leu-Trp-Ala-D-Arg-NH2 • Total assay volume: 1 ml

The target in a further assay is MMP-9 (Homo sapiens, UniProt P14780). Briefly: MMP inhibition enzyme assay, performed in an analogous manner to MMP-8. The format is biochemical. The note with it: compound concentration 0.21 µM (100 ng/ml); read-out: MMP-9 Inhib. [%]. As to the method:
as §1, §2

Broadly, the IC50 is the concentration needed to halve the response being measured.

T1 sequence (P22894 100-262 limits assumed): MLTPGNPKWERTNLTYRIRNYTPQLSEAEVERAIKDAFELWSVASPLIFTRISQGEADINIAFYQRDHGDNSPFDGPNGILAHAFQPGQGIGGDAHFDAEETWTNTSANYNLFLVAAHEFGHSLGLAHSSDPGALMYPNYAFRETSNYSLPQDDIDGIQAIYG
Sequence of MMP-9 (P14780 94-707, species assumed): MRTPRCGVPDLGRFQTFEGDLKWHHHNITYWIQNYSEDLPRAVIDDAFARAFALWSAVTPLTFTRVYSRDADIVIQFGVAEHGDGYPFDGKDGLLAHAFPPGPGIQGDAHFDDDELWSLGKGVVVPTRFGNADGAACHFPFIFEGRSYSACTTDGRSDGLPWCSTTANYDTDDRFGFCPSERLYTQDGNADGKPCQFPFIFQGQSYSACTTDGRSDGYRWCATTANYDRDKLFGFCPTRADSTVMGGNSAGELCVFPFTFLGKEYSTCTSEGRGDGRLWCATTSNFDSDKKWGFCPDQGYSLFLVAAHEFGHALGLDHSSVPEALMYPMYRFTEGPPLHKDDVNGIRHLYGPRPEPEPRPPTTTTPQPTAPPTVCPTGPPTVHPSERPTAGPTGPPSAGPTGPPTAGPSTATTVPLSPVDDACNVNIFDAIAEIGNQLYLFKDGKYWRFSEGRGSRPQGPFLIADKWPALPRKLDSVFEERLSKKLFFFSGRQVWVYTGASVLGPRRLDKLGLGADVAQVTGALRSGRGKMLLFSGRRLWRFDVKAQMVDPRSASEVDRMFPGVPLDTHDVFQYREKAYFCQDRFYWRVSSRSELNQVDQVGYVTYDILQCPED

Consider `O=C(C[C@H](NS(=O)(=O)c1ccc(-c2ccc(Cl)cc2)cc1)C(=O)O)OCc1ccccc1` [Example 2, L-N-(p-Chlorobiphenylsulfonyl)-aspartic acid-β-benzylester], for which the IC50 on MMP-8 amounted to 48.7 nM. Moreover, the inhibition at 0.21 µM on MMP-9 amounted to 38%. For the compound `O=C(O)[C@H](CSCc1ccccc1)NS(=O)(=O)c1ccc(-c2ccc(Cl)cc2)cc1` [Example 1, N-(p-Chloro-biphenylsulfonyl)-S-benzyl-cysteine], the IC50 at MMP-8 came to 21.6 nM.
